First: Cc1cc(Oc2ccc(C#N)cc2C(F)(F)F)n[nH]1
Second: O=C(O)c1cnn(-c2ccc(Cl)cc2Cl)c1C(F)(F)F
The melting point of the first is lower: 123 to 125 °C for the first, 154 to 155 °C for the second.

First: CN(C)C1(c2ccccc2)CCC(CC(=O)NCCCCc2c[nH]c3ccccc23)CC1 (stereo not drawn)
Second: C[C@@H](Nc1ncnc2[nH]c(-c3ccc(CNC(=O)CN4CCCCC4)cc3)cc12)c1ccccc1
The melting point of the first is lower: 186 °C for the first, 194 to 196 °C for the second.

Compared with `COc1ccc2c(c1)C(=O)Cc1c(C#N)cccc1S2`, `COc1cccc(C=C2CCc3c2nc2ccc(C(=O)O)cn2c3=O)c1` is higher in melting point: 186 to 187 °C for the first, 310 to 312 °C for the second.

Compared with `CCOC(=O)c1ccc(CCc2coc(N)c2C#N)cc1`, `COC(=O)CCc1ccc(-n2c(C)cn(-c3ccc(C(=N)NC(=O)OC)cc3)c2=O)cc1` is higher in melting point: 195 to 197 °C for the first, 212 to 213 °C for the second.

Compared with `O=C(O)CCCc1nc(NCc2ccc3c(c2)OCO3)c2cc(Cl)sc2n1`, `CCCCc1nc2cscc2n1Cc1ccc(-c2ccccc2C(=O)O)cc1` is higher in melting point: 112 °C for the first, 168 °C for the second.

Compared with `COCc1ccc(Oc2cc(OC)c3[nH]c(C4=NCC(CC(N)=O)S4)cc3c2)cn1` (stereo not drawn), `COc1cc2c(=O)n3cccc3cnc2cc1OCc1ccccc1` is lower in melting point: 135 to 136 °C for the first, 58 to 61 °C for the second.

Compared with `CSc1ncc(C(=O)Cc2c(Cl)cncc2Cl)cc1OC(C)C`, `COc1cc(C(=O)c2c(N)sc3c2CCN(C(=O)c2ccc(Cl)cc2)C3)ccc1OC(C)C` is lower in melting point: 124 to 125 °C for the first, 118 to 119 °C for the second.

First: Cc1nc(C(=O)NCCO[N+](=O)[O-])c(C)s1
Second: COc1cc([N+](=O)[O-])c(CCCCC(=O)O)c([N+](=O)[O-])c1O
The melting point of the first is lower: 114 to 116 °C for the first, 168 to 170 °C for the second.

First: OC1CSC(Oc2ccc(-c3cccnc3)cc2F)C(O)C1O (stereo not drawn)
Second: COc1ccc(-c2cc(C(F)F)nn2-c2ccc(S(N)(=O)=O)c(F)c2)cc1F
The melting point of the first is higher: 207 °C for the first, 167 to 169 °C for the second.

First: CC(C)(C)c1ccc2c(c1)C([Si](C)(C)C)c1cc(C(C)(C)C)ccc1-2
Second: Nc1cc(Br)ccc1-c1ccc(Br)cc1N
The melting point of the first is higher: 144 to 146 °C for the first, 118 to 119 °C for the second.

First: c1cc2c3c(c1)nc(N1CCOCC1)n3CCC2
Second: CCCc1nc(NC)nc(N2CCOCC2)n1
The melting point of the first is lower: 93 to 94 °C for the first, 131 to 133 °C for the second.

First: CCCCOc1ccc(S(=O)(=O)N2CCC(NCc3ccccc3)C2)cc1 (stereo not drawn)
Second: CC(=O)Oc1ccc(O[C@@H]2CCN(C)C[C@H]2c2ccccc2)cc1 (relative stereo)
The melting point of the first is higher: 99 to 100 °C for the first, 79.5 to 82 °C for the second.

First: COc1cc(NCCCCCCN2CCN(c3ccc(Cl)c(Cl)c3)CC2)c2nccc(C)c2c1
Second: CNC(=O)[C@@H]1CCCCN1S(=O)(=O)c1ccc(Cl)c(COc2cccc3c(-n4ccnc4)cc(C)nc23)c1Cl
The melting point of the first is higher: 92 to 94 °C for the first, 74 °C for the second.

Compared with `O=C(N[C@H]1CC[C@@H](F)CC1)OCc1ccccc1`, `CC#CN1CCN(C(=O)c2ccccc2)CC1` is lower in melting point: 105 to 107 °C for the first, 94 to 95 °C for the second.

Compared with `CCOC(=O)C(C)Oc1ccc(N(C)c2cc3ccccc3c(O)n2)cc1` (stereo not drawn), `CCOC(=O)Cc1nn(CC(=S)Nc2cc(C(F)(F)F)ccc2Br)c(=O)c2ccccc12` is higher in melting point: 96 °C for the first, 160 °C for the second.

First: Cn1nc(-c2ccc(C#N)cc2)cc(C(=O)N[C@H]2CC[C@H](C(=O)O)CC2)c1=O
Second: CCC(=O)N1CCC(NC(=O)Nc2ccc(Cl)cc2)CC1
The melting point of the first is higher: 283 to 286 °C for the first, 225 to 226 °C for the second.

First: C[C@@H]1CN(c2ccc(-c3[nH]nc4c3C(=O)c3c(NC(=O)NN5CCOCC5)cccc3-4)cc2)C[C@H](C)N1C
Second: Cc1ccc(-c2c(C=O)n(C)c(=O)c3ncccc23)cc1
The melting point of the first is lower: 240 °C for the first, 282 to 284 °C for the second.

Compared with `Cc1ccccc1Cc1ccc(Cl)nn1`, `Cc1c[nH]c(=O)n(Cc2ccccc2)c1=O` is higher in melting point: 73.5 °C for the first, 208 to 210 °C for the second.

First: CCc1cccc2c3c([nH]c12)C(CC)(CC=N)OCC3 (stereo not drawn)
Second: Cn1c2c(c3c(Cl)cccc31)CCOC2(C)CC(=O)O (stereo not drawn)
The melting point of the first is lower: 101 to 103 °C for the first, 105 to 110 °C for the second.

First: C#CCOC(=O)c1ccc(O)c(O)c1
Second: C=CCc1cc(NC(C)=O)ccc1O
The melting point of the first is higher: 127 to 129 °C for the first, 82 to 85 °C for the second.

`O=C(C(=Cc1cc(O)c(O)c([N+](=O)[O-])c1)C(=O)C1CC1)C1CC1` and `CC(C)(C)OC(=O)NC1CCCCc2cc(OCC3CCCCC3)c(C(=O)O)cc21` (stereo not drawn) cannot be ordered by melting point: 159 to 162 °C for the first, 159 to 160 °C for the second.

First: Cc1oc(-c2ccccc2)nc1COc1ccc(Sc2nc(-c3ccccc3)c(CCC(=O)O)o2)cc1
Second: COc1ccc(-c2cc(-c3ccccc3)[nH]c2C(=O)Nc2cccc(CC(=O)NO)c2)cc1
The melting point of the first is lower: 136 to 137 °C for the first, 205 to 206 °C for the second.

First: CCn1cnc2c(Nc3cccc(C(F)(F)F)c3)nc(Cl)nc21
Second: FC(F)(F)c1cccc(-c2nccc3nncn23)c1
The melting point of the first is lower: 129 to 130 °C for the first, 145 to 146 °C for the second.

First: C=CC(=O)Nc1cccc(-c2ccnc3c(C(=O)c4cccs4)cnn23)c1
Second: COCCNC(=O)c1cc(-c2ccccc2)c(=O)n2ccc3ccsc3c12
The melting point of the first is lower: 192 to 194 °C for the first, 201 to 202 °C for the second.

First: Cc1nc(-n2cc(-c3ccccn3)nn2)sc1C(=O)NCc1ccccc1
Second: N#CCCNC(=O)c1cccc(-c2cccc(Oc3cc(Cl)ccc3Cl)n2)c1
The melting point of the first is higher: 184 to 187 °C for the first, 149 to 150 °C for the second.

Compared with `NC(=O)C(O)C1CC=CCC1` (stereo not drawn), `CNC(C)C1CCN(c2nc3c(cc2F)c(=O)c(C(=O)O)cn3C2CC2)C1` (stereo not drawn) is higher in melting point: 139 to 141 °C for the first, 199 to 202 °C for the second.

Compared with `COc1ccc(CC(C(=O)n2ccnc2)C(C)(C)C)cc1` (stereo not drawn), `COc1ccc(S(=O)(=O)C=CC(=O)O)cc1` is higher in melting point: 89.5 to 91 °C for the first, 123 to 128 °C for the second.

First: O=S(c1ccc(/C=C/c2nc(COc3ccc(CCCCn4ccnn4)cc3)co2)cc1)C(F)(F)F (stereo not drawn)
Second: CCCCC(Cc1ccc(OCCNC(=O)c2ccc(-c3ccc(CO)cc3)cc2)cc1)C(=O)O (stereo not drawn)
The melting point of the first is higher: 122 to 123 °C for the first, 111 to 113 °C for the second.

First: COC(=O)c1cc(N)n[nH]1
Second: COc1c(Cl)ccc(Cl)c1C(=O)NN
The melting point of the first is lower: 134 °C for the first, 144 to 145 °C for the second.

First: N[C@@H](CCC(=O)N[C@@H](CS)C(=O)O)C(=O)O
Second: CCCCCCNC(=O)[C@@H](NC(=O)[C@H](CC(C)C)NC(=O)OC(C)(C)C)C(C)C
The melting point of the first is higher: 187 °C for the first, 115 to 116 °C for the second.

First: COC1(c2cc(F)cc(Sc3ccc4c(c3)C=CC4=NO)c2)CCOCC1
Second: O=C(O)c1ccc2c(c1)C=Cc1ccc(C(=O)O)cc1S2(=O)=O
The melting point of the first is lower: 124 to 136 °C for the first, 375 °C for the second.

First: CCCCOc1ccc(C=CCCCC(=O)O)cc1
Second: N=C(N)NCCCOc1ccc2c(c1)CC(CC(=O)O)C(=O)N2 (stereo not drawn)
The melting point of the first is lower: 56 to 57 °C for the first, 178 to 179 °C for the second.

Compared with `Cc1ccc(-c2c(CNC(=O)OC(C)(C)C)c(CC(C)C)nc3ccc(-c4nc(C(=O)OC(C)C)cs4)cc23)cc1`, `OCc1cccc2c1nc(-c1c(F)cccc1F)n2Cc1c(F)cccc1F` is lower in melting point: 190 to 191 °C for the first, 157 to 158 °C for the second.

First: CC1(c2ccccc2)Nc2ccc3c(c2N1)C(=O)c1ccccc1C3=O (stereo not drawn)
Second: CC1(c2ccccc2)C(=O)Nc2ccc(Cl)cc21 (stereo not drawn)
The melting point of the first is higher: 368 to 371 °C for the first, 180 to 181 °C for the second.

First: CCCS(=O)(=O)c1ccccc1S(=O)(=O)Cl
Second: Cn1ccnc1S(=O)c1ccccc1Cl (stereo not drawn)
The melting point of the first is lower: 74 to 77 °C for the first, 132 to 134 °C for the second.

Compared with `CC(=O)c1nc(-c2ccncc2)[nH]c1C`, `COC(=O)/C(=C/C=C/c1cc2cc(Cl)ccc2[nH]1)OC` is lower in melting point: 181 to 183 °C for the first, 166 to 168 °C for the second.

Compared with `CCCCCCC(=N)NC(=S)Nc1ccc(Br)cc1Br`, `CCCCCCCCCCCCCCc1ccc(O)cc1` is lower in melting point: 86 to 88 °C for the first, 70 to 71 °C for the second.

First: N#Cc1cccc(-c2ccc3c(Cl)c[nH]c(=O)c3c2)c1
Second: O=C1c2ccccc2C(=O)N1Cc1ccc(SC(F)(F)F)cc1
The melting point of the first is higher: > 300 °C for the first, 130 to 132 °C for the second.

First: O=[N+]([O-])c1cnn(CC(O)CCl)n1 (stereo not drawn)
Second: O=c1[nH][nH]c(=O)c2c(O)c3ccc([N+](=O)[O-])cc3nc12
The melting point of the first is lower: 38 to 38.5 °C for the first, > 400 °C for the second.

Going from `CC1(C)COCC(C)(C)N1N=O` to `COCOc1c(Br)cccc1-c1ccc2c(c1)C(C)(C)CCC2(C)C`, the melting point rises from 47 °C to 74 °C.

First: COC1=CCC2=C(CC[C@@H]3[C@@H]2CC[C@@]2(C)[C@H]3CCC23CC(O)CO3)C1 (stereo partly drawn)
Second: CC12CCC(=O)NC1=CCc1cc(F)ccc12 (stereo not drawn)
The melting point of the first is lower: 152 to 155 °C for the first, 202 °C for the second.

First: CC(=O)OCC1OC(c2ccc(F)c(Cc3ccc(Cl)s3)c2)C(OC(C)=O)C(OC(C)=O)C1OC(C)=O (stereo not drawn)
Second: CN(C)C(=O)COc1ccc2c(c1)C[C@@H](NC[C@H](O)c1ccc(O)c(CO)c1)CC2
The melting point of the first is lower: 130 to 131 °C for the first, 175 to 176 °C for the second.

First: O=C(O)CCC(=O)OCc1ccc(-c2nn(Cc3ccccc3)c3cc(F)ccc23)o1
Second: O=C(O)C1=Cc2ccc(Oc3ccccc3)cc2OC1C(F)(F)F (stereo not drawn)
The melting point of the first is lower: 120 to 122 °C for the first, 180 to 181 °C for the second.

First: Cn1ncnc1COc1nn2c(-c3ccccc3)nnc2c(Cl)c1N1CCCC1
Second: CS(=O)(=O)OCc1cc(-c2ccc3c(c2)CCO3)nn(CC2CC2)c1=O
The melting point of the first is higher: 174 to 176 °C for the first, 108 to 111 °C for the second.

Going from `CN(C)c1nc2c(N)cc(Br)cc2n1C` to `Nc1cc(Br)c([N+](=O)[O-])cc1Br`, the melting point rises from 137 °C to 178 °C.

First: C#Cc1cnn2c(C(F)(F)F)cc(-c3ccc(Cl)cc3)nc12
Second: Cc1cc(-c2ncn3c(C(F)(F)F)cc(-c4ccc(C(F)(F)F)cc4)nc23)ccn1
The melting point of the first is lower: 102 to 103 °C for the first, 257 °C for the second.

`NNC(=O)Nc1ccc(O)cc1` and `Nc1ccc2oc(=O)c(N)cc2c1` cannot be ordered by melting point: 184 to 186 °C for the first, 183 to 186 °C for the second.

First: CS(=O)(=O)N1CCC(Nc2nc(Nc3ccc(F)c(CN4CCOCC4)c3)nc(OCC(F)(F)F)n2)CC1
Second: COCCn1cc2c(C3C(=O)Nc4ccc(Br)cc43)nc(NCCC3CCNCC3)nc2n1 (stereo not drawn)
The melting point of the first is lower: 96 to 98 °C for the first, 248 to 251 °C for the second.

First: Cc1cccc(-c2nc(C(C)(C)C)n(C)n2)n1
Second: COC[C@@H]1CCCN1S(=O)(=O)c1ccc2c(c1)C(=O)C1=NCC(C)(C)CN12
The melting point of the first is lower: 106 °C for the first, 161 to 164 °C for the second.

First: CC(CN1CCC(Nn2cccc2)CC1)c1ccccc1 (stereo not drawn)
Second: O=C(NCc1ccn(-c2cc3[nH]c(=O)c(=O)[nH]c3cc2[N+](=O)[O-])c1)NC1CCN(Cc2ccccc2)CC1
The melting point of the first is lower: 72 to 74 °C for the first, 234 to 237 °C for the second.

Compared with `COc1cc2c(c(C(C)C)c1OC)C(=O)N(CCl)S2(=O)=O`, `COc1cc(CCCCC2OC(=O)NC2=O)ccc1O` (stereo not drawn) is lower in melting point: 117 to 119 °C for the first, 115 to 116 °C for the second.

`COC(=O)C1=C(OS(=O)(=O)c2ccc([N+](=O)[O-])cc2)C(=O)O[C@@H]1C` gave a melting point of 123 to 124 °C.

Reference: a melting point compilation (Tetko et al.; mined from patent text by program, amines drawn as free bases though some values may be those of a salt)
